Target: Xaa-Pro dipeptidase (Sus scrofa)
Assay: Inhibitory activity against porcine kidney prolidase

- Ki: 270 nM
Compound: NCC(=O)[C@@H]1CCC[C@H]1C(=O)O [2-((1R,2R)-2-Carboxy-cyclopentyl)-2-oxo-ethyl-ammonium; chloride]
